Results: patent US20250255848A1, “SUBSTITUTED 6,7-DIHYDRO-5H-BENZO[7]ANNULENE DERIVATIVES, PROCESSES FOR THEIR PREPARATION AND THERAPEUTIC USES THEREOF” (SANOFI, priority 2022, published 2025)

Biological target: ERα (Homo sapiens (Human), UniProt P03372)
Test: Estrogen receptor degradation activity: breast cancer cell ERα in cell western assay
Type: cell-based
Details: MCF7 cells; for % Degradation At 0.3 μM: 4 hours, normalised to fulvestrant 0.1 μM and DMSO; for IC50: 4 hours post compound addition, concentration which degrades 50% of the estrogen receptor
Description: Said test involves measuring the in vitro degradation activity of the compounds of the Table 1a.
The measurements of the degradation activities were made using a breast cancer cell ERα in cell western assay as described hereunder.
MCF7 cells (ATCC) were seeded in 384 wells microplate (collagen coated) at a concentration of 10000 cells/30 μL per well in red phenol free MEM alpha medium (invitrogen) containing 5% charcoal dextran striped FBS. The following day, 9 points serial 1:5 dilution of each compound was added to the cells in 2.5 μL at final concentrations ranging from 0.3-0.0000018 μM (in table 2), or 0.1 μM for fulvestrant (using as positive control). At 4 hours post compound addition the cells were fixed by adding 25 μL of formalin (final concentration 5% formalin containing 0.1% triton) for 10 minutes at room temperature and then washed twice with PBS. Then, 50 μL of LI-COR blocking buffer containing 0.1% Triton was added to plate for 30 minutes at room temperature. LI-COR blocking buffer was removed and cells were incubated overnight at cold room with 50 μL anti-ER rabbit monoclonal antibody (Thermo scientific MA1-39540) diluted at 1:1000 in LI-COR blocking buffer containing 0.1% tween-20. Wells which were treated with blocking buffer but no antibody were used as background control. Wells were washed twice with PBS (0.1% tween-20) and incubated at 37° C. for 60 minutes in LI-COR (0.1% tween-20) containing goat anti-rabbit antibody Alexa 488 (1:1000) and Syto-64 a DNA dye (2 μM final concentration). Cells were then washed 3 times in PBS and scanned in ACUMEN explorer (TTP-Labtech). Integrated intensities in the green fluorescence and red fluorescence were measured to determine the levels of ERα and DNA respectively.
The degradation activity with respect to estrogen receptors in this test is given by the concentration which degrades 50% of the estrogen receptor (or IC50) in nM.
The % of ERα levels decrease were determined as follows: % inhibition=100*(1−(sample−fulvestrant:DMSO−fulvestrant)).

Chain of ERα (P03372 whole entry): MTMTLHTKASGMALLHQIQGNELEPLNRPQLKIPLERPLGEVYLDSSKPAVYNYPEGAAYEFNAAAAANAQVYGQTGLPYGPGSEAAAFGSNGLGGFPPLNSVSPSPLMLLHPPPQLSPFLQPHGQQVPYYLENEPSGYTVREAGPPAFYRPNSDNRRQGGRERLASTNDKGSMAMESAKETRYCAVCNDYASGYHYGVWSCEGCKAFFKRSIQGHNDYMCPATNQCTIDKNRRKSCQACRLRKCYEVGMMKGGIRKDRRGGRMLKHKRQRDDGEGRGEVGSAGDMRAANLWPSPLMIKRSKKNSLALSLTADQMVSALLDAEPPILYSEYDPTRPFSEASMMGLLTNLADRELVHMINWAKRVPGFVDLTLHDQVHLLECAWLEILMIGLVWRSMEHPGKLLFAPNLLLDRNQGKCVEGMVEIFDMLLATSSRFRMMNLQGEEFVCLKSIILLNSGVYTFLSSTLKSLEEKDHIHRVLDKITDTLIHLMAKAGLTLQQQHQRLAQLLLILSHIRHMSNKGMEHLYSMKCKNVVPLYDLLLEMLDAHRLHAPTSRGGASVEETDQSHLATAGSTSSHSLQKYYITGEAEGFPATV

Row | % Degradation At 0.3 μM [%] | IC50 [nM] | SMILES
1 | 92 | 0.9 | COc1cc(C(F)(F)F)ccc1C1=C(c2ccc(C=C3CN(CCCF)C3)cc2)c2ccc(C(=O)O)cc2CCC1 [Compound 59, 9-(4-((1-(3-fluoropropyl)azetidin-3-ylidene)methyl)phenyl)-8-(2-methoxy-4-(trifluoromethyl)phenyl)-6,7-dihydro-5H-benzo[7]annulene-3-carboxylic acid]
2 | 93 | 0.5 | Cc1cc(C2=C(c3ccc(C=C4CN(CCCF)C4)cc3)c3ccc(C(=O)O)cc3CCC2)c(C)cc1F [Compound 27, 8-(4-fluoro-2,5-dimethylphenyl)-9-(4-((1-(3-fluoropropyl)azetidin-3-ylidene)methyl)phenyl)-6,7-dihydro-5H-benzo[7]annulene-3-carboxylic acid]
3 | 92 | 0.7 | COc1cccc(C2=C(c3ccc(C=C4CN(CCCF)C4)cc3)c3ccc(C(=O)O)cc3CCC2)c1OC [Compound 81, 8-(2,3-dimethoxyphenyl)-9-(4-((1-(3-fluoropropyl)azetidin-3-ylidene)methyl)phenyl)-6,7-dihydro-5H-benzo[7]annulene-3-carboxylic acid]
4 | 92 | 0.5 | O=C(O)c1ccc2c(c1)CCCC(c1ccc(C(F)F)cc1C(F)(F)F)=C2c1ccc(C=C2CN(CCCF)C2)cc1 [Compound 51, 8-(4-(difluoromethyl)-2-(trifluoromethyl)phenyl)-9-(4-((1-(3-fluoropropyl)azetidin-3-ylidene)methyl)phenyl)-6,7-dihydro-5H-benzo[7]annulene-3-carboxylic acid]
5 | 91 | 0.2 | Cc1cccc(F)c1C1=C(c2ccc(C=C3CN(CCCF)C3)cc2)c2ccc(C(=O)O)cc2CCC1 [Compound 26, 8-(2-fluoro-6-methylphenyl)-9-(4-((1-(3-fluoropropyl)azetidin-3-ylidene)methyl)phenyl)-6,7-dihydro-5H-benzo[7]annulene-3-carboxylic acid]
6 | 93 | 0.6 | COc1cc(C(F)F)ccc1C1=C(c2ccc(C=C3CN(CCCF)C3)cc2)c2ccc(C(=O)O)cc2CCC1 [Compound 29, 8-(4-(difluoromethyl)-2-methoxyphenyl)-9-(4-((1-(3-fluoropropyl)azetidin-3-ylidene)methyl)phenyl)-6,7-dihydro-5H-benzo[7]annulene-3-carboxylic acid]
7 | 93 | 0.5 | COc1ccc(C(F)(F)F)c(C2=C(c3ccc(C=C4CN(CCCF)C4)cc3)c3ccc(C(=O)O)cc3CCC2)c1 [Compound 47, 9-(4-((1-(3-fluoropropyl)azetidin-3-ylidene)methyl)phenyl)-8-(5-methoxy-2-(trifluoromethyl)phenyl)-6,7-dihydro-5H-benzo[7]annulene-3-carboxylic acid]
8 | 94 | 0.6 | O=C(O)c1ccc2c(c1)CCCC(c1ccc(C(F)F)cc1)=C2c1ccc(C=C2CN(CCCF)C2)cc1 [Compound 55, 8-(4-(difluoromethyl)phenyl)-9-(4-((1-(3-fluoropropyl)azetidin-3-ylidene)methyl)phenyl)-6,7-dihydro-5H-benzo[7]annulene-3-carboxylic acid]
9 | 91 | 0.4 | Cc1cccc(C2=C(c3ccc(C=C4CN(CCCF)C4)cc3)c3ccc(C(=O)O)cc3CCC2)c1C(F)F [Compound 30, 8-(2-(difluoromethyl)-3-methylphenyl)-9-(4-((1-(3-fluoropropyl)azetidin-3-ylidene)methyl)phenyl)-6,7-dihydro-5H-benzo[7]annulene-3-carboxylic acid]
10 | 93 | 0.8 | CCc1cccc(C2=C(c3ccc(C=C4CN(CCCF)C4)cc3)c3ccc(C(=O)O)cc3CCC2)c1C(F)(F)F [Compound 8, 8-(3-ethyl-2-(trifluoromethyl)phenyl)-9-(4-((1-(3-fluoropropyl)azetidin-3-ylidene)methyl)phenyl)-6,7-dihydro-5H-benzo[7]annulene-3-carboxylic acid]
11 | 105 | 1.2 | CCc1cc(C)cc(CC)c1C1=C(c2ccc(C=C3CN(CCCF)C3)cc2)c2ccc(C(=O)O)cc2CCC1 [Compound 80, 8-(2,6-diethyl-4-methylphenyl)-9-(4-((1-(3-fluoropropyl)azetidin-3-ylidene)methyl)phenyl)-6,7-dihydro-5H-benzo[7]annulene-3-carboxylic acid]
12 | 94 | 0.6 | O=C(O)c1ccc2c(c1)CCCC(c1c(F)cccc1C(F)(F)F)=C2c1ccc(C=C2CN(CCCF)C2)cc1 [Compound 20, 8-(2-fluoro-6-(trifluoromethyl)phenyl)-9-(4-((1-(3-fluoropropyl)azetidin-3-ylidene)methyl)phenyl)-6,7-dihydro-5H-benzo[7]annulene-3-carboxylic acid]
13 | 92 | 0.3 | O=C(O)c1ccc2c(c1)CCCC(c1c(Cl)cccc1C(F)(F)F)=C2c1ccc(C=C2CN(CCCF)C2)cc1 [Compound 16, 8-(2-chloro-6-(trifluoromethyl)phenyl)-9-(4-((1-(3-fluoropropyl)azetidin-3-ylidene)methyl)phenyl)-6,7-dihydro-5H-benzo[7]annulene-3-carboxylic acid]
14 | 91 | 0.6 | COc1cc(C)c(C2=C(c3ccc(C=C4CN(CCCF)C4)cc3)c3ccc(C(=O)O)cc3CCC2)c(C)c1 [Compound 18, 9-(4-((1-(3-fluoropropyl)azetidin-3-ylidene)methyl)phenyl)-8-(4-methoxy-2,6-dimethylphenyl)-6,7-dihydro-5H-benzo[7]annulene-3-carboxylic acid]
15 | 93 | 0.5 | Cc1cccc(Cl)c1C1=C(c2ccc(C=C3CN(CCCF)C3)cc2)c2ccc(C(=O)O)cc2CCC1 [Compound 21, 8-(2-chloro-6-methylphenyl)-9-(4-((1-(3-fluoropropyl)azetidin-3-ylidene)methyl)phenyl)-6,7-dihydro-5H-benzo[7]annulene-3-carboxylic acid]
16 | 90 | 0.7 | COc1c(C)cccc1C1=C(c2ccc(C=C3CN(CCCF)C3)cc2)c2ccc(C(=O)O)cc2CCC1 [Compound 3, 9-(4-((1-(3-fluoropropyl)azetidin-3-ylidene)methyl)phenyl)-8-(2-methoxy-3-methylphenyl)-6,7-dihydro-5H-benzo[7]annulene-3-carboxylic acid]
17 | 53 | 6.4 | Cc1c(Cl)cccc1C1=C(c2ccc(C=C3CN(CCC(F)F)C3)cc2)c2ccc(O)cc2CCC1 [Compound 42, 8-(3-chloro-2-methylphenyl)-9-(4-((1-(3,3-difluoropropyl)azetidin-3-ylidene)methyl)phenyl)-6,7-dihydro-5H-benzo[7]annulen-3-ol]
18 | 94 | 0.4 | Cc1cc(C(F)(F)F)c(C)cc1C1=C(c2ccc(C=C3CN(CCCF)C3)cc2)c2ccc(C(=O)O)cc2CCC1 [Compound 78, 8-(2,5-dimethyl-4-(trifluoromethyl)phenyl)-9-(4-((1-(3-fluoropropyl)azetidin-3-ylidene)methyl)phenyl)-6,7-dihydro-5H-benzo[7]annulene-3-carboxylic acid]
